Assay results from patent US9655862B2, “Ocular nanoformulation and method of use in angiogenesis-mediated disorders” (priority 2013, dated 2017).
“Also recorded” adds a separate entry of the source.

Legend:
[1] = test system: retinal neovascularization; assay: Oxygen-induced retinopathy mouse model (retinopathy of prematurity), retinal neovascularization; format: in vivo
Experimental: SNACH and SNACH Nanoparticles (1 mg/kg) in PBS at pH 7-7.5, Control: PBS at 1 mg/ml on postnatal day 12 and 15, Mode of Administration: Intraperitoneal or eye drops.
An animal model of a mice model was used. The mice model used was the Oxygen-induced retinopathy mouse model as described by Smith L E, W. E., McLellan A, Kostyk S K, D'Amato R, Sullivan R, D'Amore P A. (1994), “Oxygen-induced retinopathy in the mouse”, Invest Ophthalmol Vis Sci 35(1): 101-111.
The neonatal mice were exposed to hyperoxic conditions for 5 days, beginning at age p7 for the pups and continuing through p12 when they are returned to normal oxygen atmosphere (8-10 animals/group). Treatment group SNACH at 1 mg/kg administered IP or eye drops at two separate doses one at P12 and the other at P15. Day 17 animals were scarified and eyes removed for retinal Neovascularization evaluation. The removed eyes were stained with H&E stain. Additionally in upcoming study 3 additional animals per group were used for ocular tissue levels of SNACH after SNACH administration by LC/MS/MS.
Induction of oxygen-induced retinopathy in mouse model, in accordance with embodiments of the present invention. […]

[2] = test system: Neovascularization-mediated by VEGF+FGF2; assay: Chick chorioallantoic membrane (CAM) model of angiogenesis; format: in vivo; conditions: VEGF and FGF2 at 1 μg/ml each, SNACH 2 ug/CAM, 3-day incubation
Experimental: The effect of SNACH on Neovascularization-mediated by VEGF+FGF2 was examined in the CAM model. Briefly, ten-day old chick embryos were purchased from Spafas, Inc. (Preston, Conn.) and incubated at 37° C. with 55% relative humidity. A hypodermic needle was used to make a small hole in the shell at the air sac and a second hole will be made on the broadside of the egg, directly over an avascular portion of the embryonic membrane that will be identified by candling. A false air sac was created beneath the second hole by the application of negative pressure at the first hole, causing the CAM to separate from the shell. A window, approximately 1.0 cm^2, was cut in the shell over the dropped CAM with a small crafts grinding wheel (Dremel, Division of Emerson Electric Co., Racine, Wis.), allowing direct access to the underlying CAM. […] Digital images of CAM sections exposed to filters were collected, using a 3-CCD color video camera system (Toshiba America, New York, N.Y.), and analyzed with Image-Pro software (Media Cybernetics, Silver Spring, Md.). The numbers of vessel branch points contained in a circular region equal to the area of each filter disk were counted. One image were counted in each CAM preparation, and findings from 6-8 CAM preparations/group were analyzed for each treatment condition.

[3] = test system: neovascularization secondary to ROP; conditions: intravitreal injection; cited from earlier work
[4] = test system: choroidal neovascular membranes; conditions: wet AMD, Phase 3 clinical trials; cited from earlier work

sulfated non-anticoagulant heparin [SNACH]
neovascular regression in ROP mice model ([1]; ROP mice): causes neovascular regression
inhibition of retinal neovascularization (mean total area of neovascularization) ([1]; neonatal mouse, 1.0 mg/kg, IP on day 12 and 15): 60-70%
inhibition of angiogenesis induced by VEGF and FGF2 [2]: maximal inhibition of angiogenesis; also recorded: potent angiogenesis inhibitors

bevacizumab
regression of neovascularization secondary to ROP [3]: regression of neovascularization

B1: ranibizumab (antibody, chains of the INN, looked up, V domains shown)
VH: EVQLVESGGGLVQPGGSLRLSCAASGYDFTHYGMNWVRQAPGKGLEWVGWINTYTGEPTYAADFKRRFTFSLDTSKSTAYLQMNSLRAEDTAVYYCAKYPYYYGTSHWYFDVWGQGTLVTVSS
VL: DIQLTQSPSSLSASVGDRVTITCSASQDISNYLNWYQQKPGKAPKVLIYFTSSLHSGVPSRFSGSGSGTDFTLTISSLQPEDFATYYCQQYSTVPWTFGQGTKVEIK
modifications: Fab
notes: anti-VEGF pharmacotherapy (Lucentis, Genentech)
regression of choroidal neovascular membranes [4]: regression of choroidal neovascular membranes
